The supplement of paper PMC10307832

How the values were obtained:
Assay in all cases: relative viability (nuclei count vs DMSO), 5 days (fraction); higher = more cells survive
[1] = compound: CCn1c(-c2nonc2N)nc2cnc(Oc3cccc(NC(=O)c4ccc(OCCN5CCOCC5)cc4)c3)cc21 + CC(=O)c1c(C)c2cnc(Nc3ccc(N4CCNCC4)cn3)nc2n(C2CCCC2)c1=O [Palbociclib] (partner 0.5 µM)
In short: (§1)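 Values are medians from duplicate plates. Each reflects relative viability, defined as the nuclei count of treated wells over that of vehicle wells. Lung cancer cell lines in 1536-well plates were pin-tool dosed one day after seeding with one drug alone or with a fixed anchor-drug dose plus five library-drug doses (not always all listed) in √10 steps, then fixed, stained and imaged at 4× after 5 days.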

Mirin + Palbociclib = compound: N=C1NC(=O)/C(=C/c2ccc(O)cc2)S1 [Mirin] + CC(=O)c1c(C)c2cnc(Nc3ccc(N4CCNCC4)cn3)nc2n(C2CCCC2)c1=O [Palbociclib] (partner 0.5 µM)
In short: as §1

[2] = compound: CCC1=CN=CN=C1N2CCN(CC2)CC3=NC4=C(N3)C=C(C=C4)C(F)(F)F + NC(=O)Nc1cc(-c2cccc(F)c2)sc1C(=O)N[C@H]1CCCNC1 [AZD7762] (partner 0.2 µM)
In short: as §1

[3] = compound: CCn1c(-c2nonc2N)nc2cnc(Oc3cccc(NC(=O)c4ccc(OCCN5CCOCC5)cc4)c3)cc21 + C[C@]1(O)C[C@@H](c2nc(-c3ccc4ccc(-c5ccccc5)nc4c3)c3c(N)nccn32)C1 [Linsitinib] (partner 1 µM)
In short: as §1

Work on NCI-H1650 yielded a relative viability ([1]; first compound 0.04 µM) of 0.466, a relative viability ([1]; first compound 0.1265 µM) of 0.32 and a relative viability ([1]; first compound 0.4 µM) of 0.294. The relative viability ([1]; first compound 1.265 µM) was 0.335, the relative viability ([1]; first compound 4 µM) was 0.328 and the relative viability (Mirin + Palbociclib; first compound 0.25 µM) was 0.362. The relative viability (Mirin + Palbociclib; first compound 0.7906 µM) was 0.346, the relative viability (Mirin + Palbociclib; first compound 2.5 µM) was 0.336 and the relative viability (Mirin + Palbociclib; first compound 7.906 µM) was 0.369. For the same cell line, the relative viability (Mirin + Palbociclib; first compound 25 µM) was 0.263.
Work on NCI-H1703 yielded a relative viability ([2]; first compound 0.1265 µM) of 0.148, a relative viability ([2]; first compound 0.4 µM) of 0.125 and a relative viability ([2]; first compound 4 µM) of 0.126. It also gave a relative viability ([3]; first compound 0.04 µM) of 0.709, a relative viability ([3]; first compound 0.1265 µM) of 0.838 and a relative viability ([3]; first compound 0.4 µM) of 0.436. It also gave a relative viability ([3]; first compound 1.265 µM) of 0.464 and a relative viability ([3]; first compound 4 µM) of 0.294.
NCI-H2009 was tested, and the relative viability ([1]; first compound 0.04 µM) was 0.175, the relative viability ([1]; first compound 0.1265 µM) was 0.196 and the relative viability ([1]; first compound 0.4 µM) was 0.141. The relative viability ([1]; first compound 1.265 µM) was 0.112, the relative viability ([1]; first compound 4 µM) was 0.19 and the relative viability ([3]; first compound 0.04 µM) was 1.01. The relative viability ([3]; first compound 0.1265 µM) was 0.99, the relative viability ([3]; first compound 0.4 µM) was 0.999 and the relative viability ([3]; first compound 1.265 µM) was 0.701. The relative viability ([3]; first compound 4 µM) was 0.423, the relative viability (Mirin + Palbociclib; first compound 0.25 µM) was 0.221 and the relative viability (Mirin + Palbociclib; first compound 0.7906 µM) was 0.262. For the same cell line, the relative viability (Mirin + Palbociclib; first compound 2.5 µM) was 0.162, the relative viability (Mirin + Palbociclib; first compound 7.906 µM) was 0.202 and the relative viability (Mirin + Palbociclib; first compound 25 µM) was 0.238.
Work on NCI-H2023 yielded a relative viability ([1]; first compound 0.04 µM) of 0.415, a relative viability ([1]; first compound 0.1265 µM) of 0.392 and a relative viability ([1]; first compound 0.4 µM) of 0.337. The relative viability ([1]; first compound 1.265 µM) was 0.215, the relative viability ([1]; first compound 4 µM) was 0.202 and the relative viability ([3]; first compound 0.04 µM) was 0.802. For the same cell line, the relative viability ([3]; first compound 0.1265 µM) was 0.694, the relative viability ([3]; first compound 0.4 µM) was 0.71 and the relative viability ([3]; first compound 1.265 µM) was 0.566. The relative viability ([3]; first compound 4 µM) was 0.482, the relative viability (Mirin + Palbociclib; first compound 0.25 µM) was 0.386 and the relative viability (Mirin + Palbociclib; first compound 0.7906 µM) was 0.368. It also gave a relative viability (Mirin + Palbociclib; first compound 2.5 µM) of 0.409, a relative viability (Mirin + Palbociclib; first compound 7.906 µM) of 0.349 and a relative viability (Mirin + Palbociclib; first compound 25 µM) of 0.315.
For NCI-H2170, the relative viability ([2]; first compound 0.04 µM) was 0.899, the relative viability ([2]; first compound 0.1265 µM) was 0.832 and the relative viability ([2]; first compound 0.4 µM) was 0.83. For the same cell line, the relative viability ([2]; first compound 1.265 µM) was 0.724, the relative viability ([2]; first compound 4 µM) was 0.941 and the relative viability ([1]; first compound 0.04 µM) was 0.434. The relative viability ([1]; first compound 0.1265 µM) was 0.405, the relative viability ([1]; first compound 0.4 µM) was 0.378 and the relative viability ([1]; first compound 1.265 µM) was 0.408. It also gave a relative viability ([1]; first compound 4 µM) of 0.407, a relative viability (Mirin + Palbociclib; first compound 0.25 µM) of 0.415 and a relative viability (Mirin + Palbociclib; first compound 0.7906 µM) of 0.379. The relative viability (Mirin + Palbociclib; first compound 2.5 µM) was 0.374, the relative viability (Mirin + Palbociclib; first compound 7.906 µM) was 0.361 and the relative viability (Mirin + Palbociclib; first compound 25 µM) was 0.436.
NCI-H2228 gave a relative viability ([1]; first compound 0.04 µM) of 0.852, a relative viability ([1]; first compound 0.1265 µM) of 0.8 and a relative viability ([1]; first compound 0.4 µM) of 0.652. It also gave a relative viability ([1]; first compound 1.265 µM) of 0.683, a relative viability ([1]; first compound 4 µM) of 0.644 and a relative viability ([3]; first compound 0.04 µM) of 1.3. It also gave a relative viability ([3]; first compound 0.1265 µM) of 0.912, a relative viability ([3]; first compound 0.4 µM) of 0.906 and a relative viability ([3]; first compound 1.265 µM) of 0.992. It also gave a relative viability ([3]; first compound 4 µM) of 0.51, a relative viability (Mirin + Palbociclib; first compound 0.25 µM) of 0.863 and a relative viability (Mirin + Palbociclib; first compound 0.7906 µM) of 0.704. The relative viability (Mirin + Palbociclib; first compound 2.5 µM) was 0.799, the relative viability (Mirin + Palbociclib; first compound 7.906 µM) was 0.647 and the relative viability (Mirin + Palbociclib; first compound 25 µM) was 0.622.
In the case of NCI-H2342, the relative viability ([2]; first compound 0.04 µM) is reported as 0.441, the relative viability ([2]; first compound 0.1265 µM) is reported as 0.389 and the relative viability ([2]; first compound 0.4 µM) is reported as 0.467. The relative viability ([2]; first compound 1.265 µM) was 0.397, the relative viability ([2]; first compound 4 µM) was 0.419 and the relative viability ([1]; first compound 0.04 µM) was 0.467. It also gave a relative viability ([1]; first compound 0.1265 µM) of 0.52, a relative viability ([1]; first compound 0.4 µM) of 0.554 and a relative viability ([1]; first compound 1.265 µM) of 0.52. It also gave a relative viability ([1]; first compound 4 µM) of 0.553, a relative viability (Mirin + Palbociclib; first compound 0.25 µM) of 0.482 and a relative viability (Mirin + Palbociclib; first compound 0.7906 µM) of 0.537. It also gave a relative viability (Mirin + Palbociclib; first compound 2.5 µM) of 0.459 and a relative viability (Mirin + Palbociclib; first compound 25 µM) of 0.51.
In the case of SK-LU-1, the relative viability ([1]; first compound 0.04 µM) is reported as 0.434, the relative viability ([1]; first compound 0.1265 µM) is reported as 0.368 and the relative viability ([1]; first compound 0.4 µM) is reported as 0.337. The relative viability ([1]; first compound 1.265 µM) was 0.275, the relative viability ([1]; first compound 4 µM) was 0.295 and the relative viability ([3]; first compound 0.04 µM) was 1.17. It also gave a relative viability ([3]; first compound 0.1265 µM) of 0.861, a relative viability ([3]; first compound 0.4 µM) of 0.906 and a relative viability ([3]; first compound 1.265 µM) of 0.439. For the same cell line, the relative viability ([3]; first compound 4 µM) was 0.423, the relative viability (Mirin + Palbociclib; first compound 0.25 µM) was 0.433 and the relative viability (Mirin + Palbociclib; first compound 0.7906 µM) was 0.393. The relative viability (Mirin + Palbociclib; first compound 2.5 µM) was 0.417, the relative viability (Mirin + Palbociclib; first compound 7.906 µM) was 0.348 and the relative viability (Mirin + Palbociclib; first compound 25 µM) was 0.405.
For SK-MES-1, the relative viability ([1]; first compound 0.04 µM) was 0.353, the relative viability ([1]; first compound 0.1265 µM) was 0.301 and the relative viability ([1]; first compound 0.4 µM) was 0.284. For the same cell line, the relative viability ([1]; first compound 1.265 µM) was 0.303, the relative viability ([1]; first compound 4 µM) was 0.309 and the relative viability ([3]; first compound 0.04 µM) was 1.24. It also gave a relative viability ([3]; first compound 0.1265 µM) of 0.952, a relative viability ([3]; first compound 0.4 µM) of 0.896 and a relative viability ([3]; first compound 1.265 µM) of 0.774. The relative viability ([3]; first compound 4 µM) was 0.823, the relative viability (Mirin + Palbociclib; first compound 0.25 µM) was 0.305 and the relative viability (Mirin + Palbociclib; first compound 0.7906 µM) was 0.338. For the same cell line, the relative viability (Mirin + Palbociclib; first compound 2.5 µM) was 0.303, the relative viability (Mirin + Palbociclib; first compound 7.906 µM) was 0.3 and the relative viability (Mirin + Palbociclib; first compound 25 µM) was 0.451.
Cell Line SW 900 has a relative viability ([2]; first compound 0.04 µM) of 0.552, a relative viability ([2]; first compound 0.1265 µM) of 0.571 and a relative viability ([2]; first compound 0.4 µM) of 0.48. It also gave a relative viability ([2]; first compound 4 µM) of 0.702, a relative viability ([1]; first compound 0.04 µM) of 0.54 and a relative viability ([1]; first compound 0.1265 µM) of 0.517. For the same cell line, the relative viability ([1]; first compound 0.4 µM) was 0.572, the relative viability ([1]; first compound 1.265 µM) was 0.521 and the relative viability ([1]; first compound 4 µM) was 0.574. For the same cell line, the relative viability (Mirin + Palbociclib; first compound 0.25 µM) was 0.478, the relative viability (Mirin + Palbociclib; first compound 0.7906 µM) was 0.485 and the relative viability (Mirin + Palbociclib; first compound 2.5 µM) was 0.499. It also gave a relative viability (Mirin + Palbociclib; first compound 7.906 µM) of 0.464 and a relative viability (Mirin + Palbociclib; first compound 25 µM) of 0.503.
SW 1573 gave a relative viability ([1]; first compound 0.04 µM) of 0.454, a relative viability ([1]; first compound 0.1265 µM) of 0.355 and a relative viability ([1]; first compound 0.4 µM) of 0.349. For the same cell line, the relative viability ([1]; first compound 1.265 µM) was 0.206, the relative viability ([1]; first compound 4 µM) was 0.211 and the relative viability ([3]; first compound 0.04 µM) was 0.905. For the same cell line, the relative viability ([3]; first compound 0.1265 µM) was 0.744, the relative viability ([3]; first compound 0.4 µM) was 0.833 and the relative viability ([3]; first compound 1.265 µM) was 0.479. For the same cell line, the relative viability ([3]; first compound 4 µM) was 0.342, the relative viability (Mirin + Palbociclib; first compound 0.25 µM) was 0.366 and the relative viability (Mirin + Palbociclib; first compound 0.7906 µM) was 0.42. For the same cell line, the relative viability (Mirin + Palbociclib; first compound 2.5 µM) was 0.375, the relative viability (Mirin + Palbociclib; first compound 7.906 µM) was 0.42 and the relative viability (Mirin + Palbociclib; first compound 25 µM) was 0.292.
